Patent US20260207551A1, “PHOSPHOGLICERATE DEHYDROGENASE INHIBITORS FOR THE TREATMENT OF FIBROSIS” (CHIESI FARMACEUTICI S.P.A., priority 2022, published 2026)

What was measured:
αSMA = experiment: Phenotypic assay: high content aSMA staining in NHLF cells; type: cell-based, Human; details: for IC50: Homo sapiens, SMA, 72 h, read-out: aSMA pIC50 (converted)
Method: NHLF cells (Lonza #CC2512) were seeded as 2000 cells/well in 384-well plates in MEM medium w/o serine and glycine (Sigma #M2279)+1% pen/strep+5 mM L-glutamine +10% FBS and incubated overnight at 37° C., 5% CO2.
The next day, cells were washed with PBS and starvation MEM medium w/o serine and glycine (0% FBS) was added and cells were incubated overnight at 37° C., 5% CO2. The day after, cells were pre-incubated with compounds or vehicle (0.3% DMSO) for 1 h. Compounds were tested at 9 consecutive 3-fold dilutions starting from 30 μM. Each compound was tested in duplicate. Cells were further incubated for 72 h at 37° C., 5% CO2, 95% humidity. After 72 h of incubation, αSMA expression was quantified using immunostaining: • Fixation in 4% paraformaldehyde, • Blocking with 3% BSA, 2% FBS, 0.2% Triton-X in PBS, • Primary ab. anti-αSMA (AbCam #ab7817) diluted 500× in blocking buffer • Anti-mouse secondary ab. AF488 (ThermoFisher #A11029) • % of αSMA positive cells was determined by High Content Imaging (Molecular Device), data analysis was performed using MetaXpress software (Molecular Devices) and % of αSMA positive was further used to calculate % of inhibition for tested compounds. Total cell number was determined by Hoechst staining and % of viability over TGFβ stimulated controls was calculated.

[1] = test system: alpha smooth muscle actin (α-SMA); experiment: TGF-b induced α-SMA expression in NHLFs (Western blot); type: cell-based, Human; details: 50 uM; NHLF, TGF-β (10 ng/ml) 48 h
Source text: The antifibrotic activity of compounds of the present invention has been monitored measuring the expression of fibrotic mediators, collagen I (Col-I) and alpha smooth muscle actin (α-SMA) after treatment in lung cells with TGF-β in comparison with Nintedanib (see Frank Hilberg et al, Cancer Res 2008 Jun. 15; 68(12):4774-82), and allosteric inhibitor NCT-503 (see Hamanaka et al., Am J Respir Cell Mol Biol. 2018 May; 58(5):585-593).
Human normal lung fibroblasts (NHLFs) were purchased from Lonza (Basel, Switzerland). NHFLs were cultured in Eagle's Minimum Essential medium (EMEM) w/o serine and glycine, supplemented with 10% Fetal Bovine Serum (FBS), antibiotics (50 U/ml penicillin and 0.05 mg/ml streptomycin) and 2 mM L-glutamine, in an atmosphere of 95% air and 5% CO2 at 37° C. NHLFs cultures were used between passage 1 and 9. Before all the experiments, cells were incubated overnight in serum-free medium.
NHLFs were seeded in 12-well plates at cultured until 70% of confluency. To examine the expression of fibrotic markers, cells were treated with different concentrations of Compounds and NCT-503 in EMEM medium for 1 h followed by stimulation with TGF-β for 48 h at 37° C., 5% CO2. Following cell treatments, medium was removed and whole cell extracts were prepared by directly adding to the well the 1× loading buffer (125 mM Tris-HCl pH 6.8, 4% SDS, 0.2% Orange G, 50% glycerol, 2.5% β-mercaptoethanol, Li-cor Biosciences), boiled for 5 min and then electrophoresed on Mini protean TGX gel 4-12% (Biorad). After electrophoresis, proteins were transferred to a nitrocellulose membrane. Immunodetection of Col-I, α-SMA and glyceraldeide 3-phosphate dehydrogenase (GAPDH) were obtained by using mouse anti-CollA1 (Santacruz), mouse anti-α-SMA (sigma) and rabbit anti-GAPDH (Cell Signaling Technology) all diluted at 1:1000 in TBS-tween 0.1%. […] Detection and quantification were performed with Odyssey imaging system (Li-cor) using GAPDH as loading control.

[2] = test system: bleomycin-induced pulmonary fibrosis; experiment: Bleomycin-induced pulmonary fibrosis in male mice (Comparative Example 7); type: in vivo; details: for lung/body weight: NCT-503 100 mg/kg/day, Nintedanib esylate 60 mg/Kg/day
Method: The allosteric inhibitor NCT-503 has accordingly been assessed in the same murine model of Compound 19. Comparative Example 7 was carried out under the same experimental conditions of Example 5.
The treatment was stopped at day 10, after 4 days of treatment with NCT-503 600 mg/kg/day. After two days wash-out, the treatment re-started with a once daily regimen at the final dose of […].
The final dose was of 100 mg/kg/day.

[3] = Plasma and brain exposure after the last dose in bleomycin model (Comparative Example 7); type: in vivo, mice; details: after the last oral dose; 0.5 h, 2 h and 7 h
Method: Plasma and tissue exposures of NCT-503 were determined as described in Example 2. The plasma and brain concentrations of NCT-503 were determined by a liquid chromatography-tandem mass spectrometry (LC/MS/MS) assay. Plasma or tissue homogenate samples (tissues were homogenized with a water/acetonitrile 50/50 mixture) were extracted with 3 volumes of acetonitrile. Supernanatant was injected into HPLC system (Agilent 1260 Quaternary Pump equipped with an Agilent 1200 High Performance Autosampler SL; Agilent), using a Kinetex EVO C18 analytical column (100 A, 50×2.1 mm, 2.6 μm; Phenomenex). The mobile phases consisted of 0.1% formic acid in water (solvent A) and 0.1% formic acid in acetonitrile (solvent B); chromatographic separation was performed with gradient elution method (0.0-0.5 min, 5% B; 0.5-4.0 min, gradient to 90% B; 4.0-5.5 min, 90% B; 5.5-7.0 min, gradient to 5% B; 7.0-11.0 min, 5% B—flow rate: 0.3 mL/min).
Mass spectrometric analysis was performed on a linear ion trap triple quadrupole mass spectrometer (4000 Q TRAP; AB SCIEX) equipped with a turbo spray ion source; mass spectrometer was operated in positive ion mode and quantification was achieved by multiple reaction monitoring (MRM) mode. Peak integration was performed using Analyst (version 1.6.2.). […]
Plasma and brain exposure of NCT-503 was determined following the last oral dose at three timepoints (0.5 h, 2 h and 7 h).

[4] = test system: bleomycin-induced pulmonary fibrosis; details: treated mice 7 days after intratracheal instillation of bleomycin; cited from earlier work
[5] = test system: bleomycin-induced pulmonary fibrosis; experiment: Bleomycin-induced pulmonary fibrosis in male mice (Example 6); type: in vivo, Male C57BL6/J mice; details: Nintedanib esylate 50 mg/Kg bid
Method: The effect of Compound 19a was evaluated in a murine model (C57BL/6J mouse strain) in which fibrosis was induced by a double oropharyngeal (OA) instillation of bleomycin. The Compound 19a was administered under therapeutic regimen for 14 days, starting the treatments at day 7 from the first instillation of Bleomycin OA up to the day 21, considered the endpoint for this model.
All mice were maintained under pathogen-free conditions and had free access to food and water.
Lung injury was induced by double OA instillation of bleomycin hydrochloride (BLM, BAXTER, Deerfield, IL, USA) at day 0 and day 4 at the dose of 0.03 U/mouse in […] of saline solution (NaCl 0.9%). Control animals received double OA instillation of […] of saline solution.
The Compound 19a was orally administered twice daily at the three doses of 3, 30 and 100 mg/Kg 10 mL/Kg, using as vehicle for dissolution the 0.5% Tween 80, 0.5% Methylcellulose in H2O.
On day 21, the respiratory system mechanics were measured using the FlexiVent System (SCIREQ Inc., Montreal Qc, Canada) (Vanoirbeek et al., 2010).
Briefly, mice were anesthetized by intraperitoneal injection of ketamine (Anesketin®, Dechra Inc., Handelsweg, NL) and xylazine (Xilagesic®, Calier Inc., Barcelona, ES) solution (100 mg/Kg and 10 mg/Kg, respectively). Once anesthesia was achieved, to analyze forced vital capacity (FVC), anesthetized mice were tracheotomized using an 18-gauge metal cannula, connected via an endotracheal cannula to the FlexiVent and ventilated at a respiratory rate of 150 breaths/min and tidal volume of 10 mL/Kg against a positive end-expiratory pressure of 3 cm H2O to achieve a mean lung volume close to that during spontaneous breathing. To prevent spontaneous breathing mice also received pancuronium bromide at 1 mg/Kg intraperitoneally. FlexiVent software version 8.1 was used to perform the perturbations.
Immediately after the in-life evaluation, plasma and bronchoalveolar lavage fluid (BALF) samples were collected.
First, blood was collected by cardiac puncture, and plasma was obtained after centrifugation of blood at 2000×g and 4° C. for 10 minutes.
Subsequently, the lungs were gently rinsed three times using a tracheal cannula with 0.6 mL of clear BAL solution. The obtained BALF was centrifuged at 1000×g and 4° C. for 10 minutes. The cell-free supernatant was used for biomarkers quantitative determination.
The following biomarkers were determined in BALF and plasma samples by commercially available ELISA kits: Collagen I (evaluated in BALF), an index of collagen accumulation; matrix metallopeptidase 7 (MMP-7, evaluated in BALF), indicator of aberrant fibrogenesis and ECM remodeling and surfactant protein D (SP-D, evaluated in PLASMA), marker of alveolar epithelial cell damage and dysfunction.
Lastly, the entire lungs were resected, fixed with formalin and embedded in paraffin. Sections were stained with Masson's trichrome to assess the grade and severity of fibrosis and collagen deposition.

[6] = test system: bleomycin-induced pulmonary fibrosis; experiment: Bleomycin-induced pulmonary fibrosis in male mice (Example 5)
Method: Male C57BL6/J mice (7-8 weeks old) were purchased from the Envigo RMS (San Pietro al Natisone (UD), Italy). All mice were maintained under pathogen-free conditions and were provided food and water ad libitum.
Lung injury was induced by double oropharyngeal instillation of Bleomycin hydrochloride (BLM, BAXTER) at day 0 and day 4 at the doses of 0.02 U/mouse in 50 μl of saline solution (0.9%). Control animals received double oropharyngeal instillation of 50 μl of saline solution.
Compound 19 was orally administered twice daily, starting on day 7 after the first oropharyngeal administration of bleomycin at the two doses of 400 and 600 mg/kg/day, 10 ml/kg, dissolved in 0.5% Tween 80, 0.5% Methylcellulose in H2O and treatment lasted for two weeks.
A group of animals was treated with Nintedanib esylate salt, at the dose of 60 mg/kg/day, 10 ml/kg, once daily, to compare the efficacy of the test compounds with an FDA approved drug for the treatment of IPF patients. Control mice were given vehicle-only over the same time intervals. Weight of all animals has been assessed twice a week starting from day 0 until day 21.
On days 21, mice were anesthetized by intraperitoneal injection of thiopental (200 mg/kg/10 ml; pentothal sodium, MSD Animal Health Srl). Blood was withdrawn by cardiac puncture and collected in heparine tubes. Plasma was obtained after centrifugation of blood at 10,000 g for 10 min. Lungs were lavage with saline solution through the heart, formalin fixed and paraffin embedded, and sections were stained with Masson's Trichrome to evaluate the grade and severity of fibrosis and collagen deposition.
Masson's Trichrome stained slides were also scanned with NanoZoomer S60 (Hamamatsu Photonics K.K., Shizuoka, Japan) and acquired into the Visiopharm Integrator System (VIS; version 2017.2.4.3387) for a quantification of pulmonary fibrosis by automated analysis with the support of a VIS Analysis Protocol Package (APP). The present APP has been designed to identify and then quantify the fibrotic tissue, detecting accumulation of altered connective tissue, excess of collagen deposition and cellular density.
To quantify lung protein content and the levels of specific proteins as markers of fibrosis and collagen deposition, lungs from subgroups of animals were weighted, homogenized in Phosphate buffer solution (PBS) and proteins of interest were quantified by immunometric or colorimetric assays. Hydroxyproline content was determined using the Hydroxyproline Colorimetric Assay Kit (Sigma MAK008, USA) according to the manufacturer's protocol. WISP-1, CollagenI, pro-CollagenI and Elastin were determined by Elisa kits. Protein quantification was performed using DC Protein Assay (Bio-Rad Laboratories, Italy). Plasma serine levels were measured using the DL-Serine Assay Kit (Abcam, Cambridge, MA).

## Cn1c(C(=O)NC2(c3ccc(C(C(=O)O)C4CC4)cc3)CCOC2)cc2c(Cl)c(Cl)ccc21 (racemic) [Compound 15, (±)-2-Cyclopropyl-2-(4-(3-(4,5-dichloro-1-methyl-1H-indole-2-carbox-amido)tetrahydrofuran-3-yl)phenyl)acetic acid]
αSMA; NHLF, 72 h incubation
  IC50: 2 µM

## Cn1c(C(=O)NC2(c3ccc(C(C(=O)O)C4CCCC4)cc3)CCOC2)cc2c(Cl)c(Cl)ccc21 (racemic) [Compound 16, (±)-2-cyclopentyl-2-{4-[3-(4,5-dichloro-1-methyl-1H-indole-2-amido)oxolan-3-yl]phenyl}acetic acid]
αSMA; NHLF, 72 h incubation
  IC50: 0.501 µM

## COc1cc2c(cc(C(=O)NC3(c4ccc(C(C(=O)O)C(C)C)cc4)CCOC3)n2C)c(Cl)c1Cl (racemic) [Compound 20, (±)-2-{4-[3-(4,5-dichloro-6-methoxy-1-methyl-1H-indole-2-amido)oxolan-3-yl]phenyl}-3-methylbutanoic acid]
αSMA; NHLF, 72 h incubation
  IC50: 1.26 µM

## CCC(C(=O)O)c1ccc(C2(NC(=O)c3cc4c(Cl)c(Cl)ccc4n3C)CCOC2)cc1 (racemic) [Compound 72, (±)-2-{4-[3-(4,5-dichloro-1-methyl-1H-indole-2-amido)oxolan-3-yl]phenyl}butanoic acid]
αSMA; NHLF, 72 h incubation
  IC50: 1.26 µM

## Cc1cc(C)nc(NC(=S)N2CCN(Cc3ccc(C(F)(F)F)cc3)CC2)c1 [NCT-503]
[1]
  TGF-b induced a-sma (% inh. 50 uM): 93%
αSMA; NHLF, 72 h incubation
  aSMA pIC50: >5.0
αSMA; after 72 hours of incubation
  expression of aSMA (in words): partially reduces the expression of aSMA
[2]; 100 mg/kg/day
  fibrosis severity (FIG. 20B): not significant trend in reducing fibrosis severity
[2]; 100 mg/kg/day, compared to vehicle-treated mice
  Ashcroft score analysis (FIG. 20A): did not result in diminished Bleomycin-induced lung fibrosis
[2]; 200 mg/kg/day
  body weight: did not show a significant worsening of the body weight
[2]; 600 mg/kg/day (bid)
  tolerability: did not tolerate
[2]; 600 mg/kg/day then 300 mg/kg/day once daily
  survival: 40%
[2]; 600 mg/kg/day, 4 days of treatment
  weight loss compared to Day 0: ~ 20%
[2]
  lung/body weight: do not induce reduction of lung/body weight
[2]; lung homogenates
  levels of pro-CollagenI and WISP-1: not affected
[2]; plasma
  circulating serine levels (de novo serine synthesis): did not induce inhibition of de novo serine synthesis
[3]
  main brain/plasma ratio: 2.4
[4]
  attenuation of lung fibrosis: preliminary efficacy in attenuation of lung fibrosis

## COC(=O)c1ccc2c(c1)NC(=O)/C2=C(\Nc1ccc(N(C)C(=O)CN2CCN(C)CC2)cc1)c1ccccc1 [Nintedanib, reference compound]
[5]; Compound 19a 100 mg/Kg bid
  reduction of Collagen I in BALF: 56%
  reduction of MMP-7 in BALF: 86%
  reduction of SP-D levels in plasma: 87%
[5]; Compound 19a 100 mg/kg bid, vs BLM/vehicle
  improvement of FVC decline: similarly to Nintedanib
[2]
  lung/body weight: do not induce reduction of lung/body weight
[6]; Compound 19 highest dose (600 mg/kg/day), Nintedanib esylate 60 mg/kg/day, not significant
  reduction of lung/body weight: −21%
[6]; compared to BLM/Vehicle treated group
  body weight during 2-weeks of treatment: did not lose additional weight
[6]; day 21
  Ashcroft score (FIG. 11A): reduced
